Data set [1] in a line: In vitro plasma protein binding (equilibrium dialysis), rat. It is filed as in vitro ADME. The note with it: pH 7.4, dialysis 2 hours at 37° C., read-out: Fraction bound (converted). Here is the method:
(§1) Dianorm Teflon dialysis cells (micro 0.2) are used. Each cell consists of a donor (i.e., buffer chamber) and an acceptor chamber (i.e., plasma chamber), separated by an ultrathin semipermeable membrane with a 5 kDa molecular weight cutoff. Stock solutions for each test compound are prepared in DMSO at 1 mM and diluted to a final concentration of 1.0 μM. Aliquots of 200 μL dialysis buffer (100 mM potassium phosphate, pH 7.4) are dispensed into the buffer chamber. Aliquots of 200 μL test compound dialysis solution are dispensed into the plasma chambers. Incubation is carried out for 2 hours under rotation at 37° C. Then, the dialysate is transferred into reaction tubes. The tubes for the buffer fraction contain 0.2 mL acetonitril/water (80/20 volume/volume). Aliquots of 25 μL of the plasma dialysate are transferred into deep well plates and mixed with 25 μL acetonitril/water (80/20 volume/volume), 25 μL buffer, 25 μL calibration solution and 25 μL Internal Standard solution. Protein precipitation is done by adding 200 μL acetonitrile. Aliquots of 50 μL of the buffer dialysate are transferred into deep well plates and mixed with 25 μL blank plasma, 25 μL Internal Standard solution and 200 μL acetonitril. Percent bound is calculated with the formula: % bound=(plasma concentration−buffer concentration/plasma concentration)×100.
(In equilibrium dialysis free small molecules cross a membrane that holds back macromolecules.)

Data set [2] has as its system plasma protein. The data set is described as above. It is filed as in vitro ADME. The note with it: 1.0 μM, dialysis 2 hours at 37° C. As for the experimental part:
as §1

The nature of data set [3]: In vitro plasma protein binding (equilibrium dialysis), dog. The class given is in vitro ADME. To be noted: pH 7.4, dialysis 2 hours at 37° C., read-out: Fraction bound (converted). Here is the method:
as §1

Data set [4] deals with plasma protein. The description is as above. It is filed as in vitro ADME. To be noted: 1.0 μM, dialysis 2 hours at 37° C. Here is the method:
as §1

Data set [5] deals with hepatocytes. Nature of the data set: In vitro metabolic stability in hepatocyte incubations, mouse. The class given is in vitro ADME. The note with it: Mouse hepatocytes, 1 μM. Here is the method: (§2) Metabolic degradation of the test compound is assayed in a hepatocyte suspension. Hepatocytes are incubated in an appropriate buffer system. Following a (typically) 30 min preincubation in an incubator (37° C., 10% CO2) 5 μL of test compound solution (1 μM) are added into 395 μL hepatocyte suspension (cell density in the range 0.25-5 Mio cells/mL, typically 1 Mio cells/mL, final DMSO concentration 0.05%). The cells are incubated for six hours (incubator, orbital shaker) and samples (25 μL) are taken at 0, 0.5, 1, 2, 4 and 6 hours. Samples are transferred into acetonitrile and pelleted by centrifugation (5 min). The supernatant is transferred to a new 96-deepwell plate, evaporated under nitrogen and resuspended. Decline of parent compound is analyzed by HPLC-MS/MS. CLint is calculated as follows CL_INTRINSIC=Dose/AUC=(CO/CD)/(AUD+clast/k)×1000/60. […]

Data set [6] in a line: In vitro metabolic stability in hepatocyte incubations, dog. The class given is in vitro ADME. The note with it: hepatocytes (suspension); Dog; predicted from hepatocyte CL intrinsic, well stirred model; read-out: CL, in vivo. Here is the method:
as §2

Data set [7] concerns hepatocytes. The data set is described as above. The class given is in vitro ADME. To be noted: Dog hepatocytes, 1 μM. Here is the method: as §2
Data set [8] can be described thus: In vitro metabolic stability in hepatocyte incubations, minipig. To be noted: hepatocytes (suspension); Minipig; predicted from hepatocyte CL intrinsic, well stirred model. It is filed as in vitro ADME. As for the experimental part: as §2
Data set [9] has as its system hepatocytes. Described as above. It is filed as in vitro ADME. The note with it: Minipig hepatocytes, 1 μM. As for the experimental part:
as §2

A short description of data set [10]: In vitro metabolic stability in hepatocyte incubations, human. It is filed as in vitro ADME. To be noted: hepatocytes (suspension); Human; predicted from hepatocyte CL intrinsic, well stirred model; read-out: CL, in vivo. As for the experimental part:
as §2

Data set [11] has as its system hepatocytes. The description is as above. It is filed as in vitro ADME. The note with it: Human hepatocytes, 1 μM. As for the experimental part:
as §2

Data set [12] can be described thus: Intravenous pharmacokinetics in minipig. The class given is in vivo, Göttingen Minipigs. The note with it: IV dose 5 μmol/kg, mean values. The source says:
The pharmacokinetics of the test compound following single intravenous (IV) or oral (PO) doses were examined in • female BALB/c mice (average weight: 25 g) • male Wistar(Han) rats (average weight: 260 g) • male and female Göttingen Minipigs (average weight: 24 kg) • male beagle dogs (average weight: 15 kg) All non-rodent species were fasted overnight prior to dosing, while mice and rats had food and water available ad libitum. The p.o. dose of the compound was usually administered as suspension in 0.5% Natrosol or as a 0.5% Natrosol/0.015% Tween 80 suspension. For i.v. dosing purposes, the doses were applied as a solution in 0.9% NaCL, or as a solution containing 9.1% HP-beta Cyclodextrin in water.
Blood was collected by venous sampling and soaking of the blood in EDTA coated tubes. Samples were collected for up to 48 h after administration of the test compound. Plasma was then separated by centrifugation (5 min by approximately 9000 g at 4° C.). For determination of the test compound, plasma was transferred into PCR plates. All samples were stored at approximately −20° C. until bioanalytics. The test compound concentrations in plasma were determined by HPLC MS/MS. The lower limit of quantification was between 0.5 nmol/L and 1 nmol/L.

Data set [13] has as its system U937 cells. Kind of data set: In vitro phospholipidosis assay (Nile Red staining, flow cytometry). The note with it: 48 hours incubation. For orientation: A flow cytometer gives signals particle by particle.
Protocol: Cell line: U937. Cell density: 0.5 Mio. cells/mL. Amount of medium: 3 mL/well.
3×0.5 mL suspensions of cells are prepared from each sample for flow cytometry measurement (non-fixed cells for viability determination, non-fixed cells and fixed cells for phospholipidosis analysis).
Immediately before measurement, 12.5 μL of the PI ready to use solution is added per sample (0.5 mL non-fixed cell suspension), which are kept on ice for another 15 min before measurement.
Cut-off gates for the fluorescence-dependent differentiation between life and dead cells are defined based on the analysis of cell culture medium plus vehicle exposed Control cells. Cells with a fluorescence lower than the cut-off are defined as viable. Absolute viability of a sample is the relation of viable cells to total cell number and expressed as percentage.
Immediately before measurement, 50 μL of the NR ready to use solution for live cell staining is added per sample (0.5 mL non-fixed cell suspension). Samples are kept on ice for another 5 min. […]
Both the Nile Red stained non-fixed cells as well as the Nile Red stained fixed cells are measured according the following procedure. […]
For each channel, absolute fluorescence intensity of a specific sample is correlated to the mean absolute fluorescence intensity of all cell culture medium plus vehicle exposed Control cells of the respective experiment. […]
The mark [14] stands for this setting: both sexes, Göttingen, plasma, 5 umol/kg.

In the case of `CO[C@H]1COCC[C@H]1NC1CCN(C(=O)c2ncnc(NC[C@H]3CCC[C@@H](c4ccc(C)cc4)O3)c2C)CC1` [compound I, (4-((3R,4R)-3-methoxytetrahydro-pyran-4-ylamino)piperidin-1-yl)(5-methyl-6-(((2R,6S)-6-(p-tolyl)tetrahydro-2H-pyran-2-yl)methylamino)pyrimidin-4-yl)methanone], the fraction unbound at 2 h, 1 μM in data set [1] was 0.311; in data set [3] it was 0.296. Further, the Fraction unbound in data set [2] is 31.1%; in data set [4], 29.6%. Also, the “CL intrinsic, in vitro” value in data set [5] is on record as 16.4 μL/min/10e6 cells; in data set [7], 3.15 μL/min/10e6 cells; in data set [9], 2.73 μL/min/10e6 cells; in data set [11], 4.11 μL/min/10e6 cells. In addition, the CLhep predicted at 1 μM was 14 mL/min/kg in data set [6] and 7.9 mL/min/kg in data set [10]. For the same molecule, the predicted in vivo clearance at 1 μM in [8] is 6.8 mL/min/kg. The molecule also registered an MRTdisp in data set [12] of 4.15 h. Moreover, in data set [12] (setting [14]), the area under the curve AUC(0-inf) amounted to 4.31 µM·h. In data set [12] (setting [14]), this molecule registered a clearance of 20 mL/min/kg. Moreover, the Vd in data set [12] (both sexes, Göttingen, plasma, 5 umol/kg, read-out: Vss) was determined as 5.07 L/kg. In data set [13], the lowest phospholipidogenic concentration stood at 200 µM. In addition, in data set [13], the “phospholipidogenic potential (in words)” value was “propensitiy to be phospholipidogenic”.

By AUC(0-inf) is commonly meant the area under the concentration-time curve extrapolated to infinity. Broadly, the clearance is a measure of how efficiently the substance is removed, as volume per time. Low readings indicate inefficient removal, high ones efficient removal.
